Series [1] addresses T1, DYRK1A (Homo sapiens, UniProt Q13627).
T1 construct: purchased ProQinase (Freiburg, Germany)
The series is described as follows: Kinase-GLO luminescent kinase assay. It is filed as biochemical. The settings on record: 1 μM compound; means of at least 3 measurements. As for the experimental part:
(§1) Bacterial expression plasmids for GST-DYRK1A-ΔC and GST-DYRK2 have been described earlier. […] Expression in logarithmically growing E. coli culture was performed for 3 h at 37°C (GST-DYRK1A-ΔC and GST-DYRK2), 3 h at 26°C (GST-HIPK2cat), over night at 28°C (GST-CLK1cat) or over night at room temperature (GST-DYRK1Bcat).
(§2) Compounds were screened for inhibitory effects against GST-DYRK1A-ΔC, GST-DYRK1Bcat, GST-DYRK2, GST-CLK1cat or GST-HIPK2cat using the Kinase-GLO Luminescent Kinase Assay from Promega. Assays were performed in a total volume of 10 μL in kinase-buffer (25 mM Hepes pH 7.4, 0.5 mM DTT, 5 mM MgCl2, 5 μM ATP) with appropriate peptide substrates (20 μM DYRKtide for the DYRKs and 100 μM DYRKtide for HIPK2, […]; or 100 μM RS domain-derived peptide for CLK1, […]). Assays were started with this amount of a kinase preparation that consumed approximately 90% of the ATP in the assay (linear range of the kinase titration curve). The reactions were run at room temperature for 30 min before 10 μL Kinase-GLO reagent was added. After incubation at room temperature for additional 10 min, luminescence was recorded for 1 s.

For series [2], the target named is T2, DYRK2 (Homo sapiens, UniProt Q92630).
T2 construct: purchased ProQinase (Freiburg, Germany)
T2 sequence (Q92630 1-601): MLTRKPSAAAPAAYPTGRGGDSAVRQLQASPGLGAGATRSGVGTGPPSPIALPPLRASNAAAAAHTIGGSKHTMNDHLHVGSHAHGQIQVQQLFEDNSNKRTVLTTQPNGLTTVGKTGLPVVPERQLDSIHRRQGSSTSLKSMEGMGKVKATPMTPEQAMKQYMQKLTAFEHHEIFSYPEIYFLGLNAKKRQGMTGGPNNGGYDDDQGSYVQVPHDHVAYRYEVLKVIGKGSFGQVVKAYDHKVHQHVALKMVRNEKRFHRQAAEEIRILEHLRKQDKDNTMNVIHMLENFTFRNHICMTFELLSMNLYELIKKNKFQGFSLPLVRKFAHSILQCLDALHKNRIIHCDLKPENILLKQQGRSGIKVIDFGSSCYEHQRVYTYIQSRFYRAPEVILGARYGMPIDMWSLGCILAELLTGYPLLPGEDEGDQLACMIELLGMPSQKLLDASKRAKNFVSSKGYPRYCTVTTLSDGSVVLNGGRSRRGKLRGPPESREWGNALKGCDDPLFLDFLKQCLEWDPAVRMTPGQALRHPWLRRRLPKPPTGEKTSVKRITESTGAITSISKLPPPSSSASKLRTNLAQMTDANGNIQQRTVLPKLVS
The series is described as follows: Kinase-GLO luminescent kinase assay. Type of series: biochemical. Particulars: 1 μM compound; means of at least 3 measurements. As for the experimental part:
as §1, §2
(In Kinase-Glo more light means more ATP remaining.)

Series [3] addresses T3, DYRK1A (Rattus norvegicus, UniProt Q63470).
T3 construct: Bacterial expression plasmids for GST-DYRK1A-ΔC and GST-DYRK2 have been described earlier; made in house; host or cells: E. coli
The series can be described thus: Radioactive kinase assay (DYRKtide, 33P-ATP). Type of series: biochemical. Particulars: 100 μM ATP, n = 3–5 concentration response curves, read-out: Inhibition of DYRK1A IC50. As for the experimental part:
Each sample was assayed in triplicate. […]
estimate solubility and permeability in drug discovery and development settings. Adv. Drug Delivery Rev. 23, 4-25. […]
that influence the oral bioavailability of drug candidates. […]
c estimated using the Molinspiration logP engine. […]
log [inhibitor,M] log [inhibitor, M]
(§3) 2 were calculated. Kinase activity of DYRK1A was determined by radiometric assays using the peptide DYRKtide as a substrate. MAO-A activity was measured with the help of the MAO-GLO assay kit (Promega). IC50 values were calculated by curve fitting with the help of […]
(§4) the […] PRISM 5.0 program after automatic outlier elimination. The graphs present

Series [4] concerns the target T4, MAO-A (Homo sapiens, UniProt P21397).
T4 sequence (P21397 1-527): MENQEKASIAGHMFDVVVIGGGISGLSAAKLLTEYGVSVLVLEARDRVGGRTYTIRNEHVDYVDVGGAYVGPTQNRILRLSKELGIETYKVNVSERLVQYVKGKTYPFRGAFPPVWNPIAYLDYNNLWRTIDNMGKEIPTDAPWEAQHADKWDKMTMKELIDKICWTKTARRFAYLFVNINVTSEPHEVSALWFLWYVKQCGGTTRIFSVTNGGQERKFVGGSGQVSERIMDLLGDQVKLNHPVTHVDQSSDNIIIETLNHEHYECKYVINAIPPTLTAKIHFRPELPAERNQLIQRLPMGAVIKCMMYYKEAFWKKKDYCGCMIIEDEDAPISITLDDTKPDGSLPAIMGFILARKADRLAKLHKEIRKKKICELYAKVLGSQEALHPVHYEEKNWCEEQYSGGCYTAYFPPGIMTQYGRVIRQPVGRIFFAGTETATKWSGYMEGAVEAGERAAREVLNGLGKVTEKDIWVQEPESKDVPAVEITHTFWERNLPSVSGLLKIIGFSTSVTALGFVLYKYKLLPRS
The series is described as follows: MAO-GLO assay. It is filed as biochemical. The settings on record: for IC50: read-out: Inhibition of MAO-A IC50. How it is done: as §3, §4

Series [5] can be described thus: Cell viability XTT assay. Type of series: cell-based. The settings on record: human, HeLa cells, read-out: Viability of treated cells relative to untreated control.
A short description of series [6]: Cell viability XTT assay. Type of series: cell-based. Particulars: rat, PC12 cells, read-out: Viability of treated cells relative to untreated control; for viability at 3 days, 1 µM: PC12, 1 μM; for viability at 3 days, 3 µM: PC12, 3 μM; for viability at 3 days, 10 µM: PC12, 10 μM. (Formazan colour is commonly taken as a measure of viable cells.)
A short description of series [7]: Cell viability XTT assay. The settings on record: human, SH-SY5Y cells, read-out: Viability of treated cells relative to untreated control. It is filed as cell-based.
The target in series [8] is CLK1 (Homo sapiens, UniProt P49759). The series can be described thus: Kinase-GLO luminescent kinase assay. Particulars: 1 μM compound; means of at least 3 measurements. It is filed as biochemical. Set-up: made in house; host or cells: E. coli. As for the experimental part:
as §1, §2

Series [9] addresses DYRK1B (Homo sapiens, UniProt Q9Y463). The series can be described thus: Kinase-GLO luminescent kinase assay. Details: made in house; host or cells: E. coli. The settings on record: 1 μM compound; means of at least 3 measurements. It is filed as biochemical. How it is done: as §1, §2
The target of series [10] is HIPK2 (Homo sapiens, UniProt Q9H2X6). The series can be described thus: Kinase-GLO luminescent kinase assay. The settings on record: 10 μM compound; means of at least 3 measurements. Details: made in house; host or cells: E. coli. Type of series: biochemical. How it is done:
as §1, §2

The test system of series [11] is HeLa cells. The series is described as follows: Cell viability XTT assay. It is filed as cell-based. Particulars: 3 days.
Series [12] has as its system PC12 cells. The series can be described thus: Cell viability XTT assay. It is filed as cell-based. Particulars: 3 days.
The test system of series [13] is SH-SY5Y cells. The series is described as follows: Cell viability XTT assay. It is filed as cell-based. The settings on record: 3 days.
Where [14] appears, read: n = 3–5 concentration response curves.

We go through three compounds from publication PMC4508061, “Selectivity Profiling and Biological Activity of Novel β-Carbolines as Potent and Selective DYRK1 Kinase Inhibitors” (PLoS ONE, 2015).

Where two headings read alike, the source gives them in different places.

By IC50 is commonly meant the point on the concentration scale where inhibition reaches its midpoint. A word on the inhibition: it is the drop in the measured response relative to a control, in per cent. As a reminder, the viability is a per cent measure of how many cells are alive, often set against a control.

Chain of CLK1 (P49759 141-484): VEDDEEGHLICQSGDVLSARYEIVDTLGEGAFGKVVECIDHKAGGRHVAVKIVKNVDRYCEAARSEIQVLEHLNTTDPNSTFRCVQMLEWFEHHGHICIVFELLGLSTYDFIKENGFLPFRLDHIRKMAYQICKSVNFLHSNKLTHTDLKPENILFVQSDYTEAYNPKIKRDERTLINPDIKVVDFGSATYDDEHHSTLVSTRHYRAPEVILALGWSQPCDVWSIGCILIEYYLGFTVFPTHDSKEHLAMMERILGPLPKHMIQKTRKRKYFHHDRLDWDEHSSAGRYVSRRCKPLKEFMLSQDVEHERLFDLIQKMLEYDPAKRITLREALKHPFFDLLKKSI
Chain of HIPK2 (Q9H2X6 180-533): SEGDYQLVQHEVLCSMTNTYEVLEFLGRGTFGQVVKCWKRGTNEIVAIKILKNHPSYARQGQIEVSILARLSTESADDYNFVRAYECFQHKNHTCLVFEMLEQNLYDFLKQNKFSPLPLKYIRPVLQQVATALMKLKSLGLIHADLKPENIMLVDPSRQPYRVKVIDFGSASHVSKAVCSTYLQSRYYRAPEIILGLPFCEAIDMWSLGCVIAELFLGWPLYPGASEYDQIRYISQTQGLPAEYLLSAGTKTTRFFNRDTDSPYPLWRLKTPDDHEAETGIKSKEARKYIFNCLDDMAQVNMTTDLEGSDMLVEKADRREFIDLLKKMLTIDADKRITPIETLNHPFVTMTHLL

`COc1ccc2c3ccnc(C)c3n(CC#N)c2c1` [AnnH31]: the “Residual activity (% of control) DYRK1A” value in [1] is given as 8 % of control. For the same compound, in series [2], the “Residual activity (% of control) DYRK2” value is recorded as 59 % of control. Moreover, the IC50 in [3] amounted to 0.081 µM; in series [4] (setting [14]), 3.24 µM; in series [4], 3.2 µM. The compound further came in with an inhibition at 1 µM in series [4] (1 μM, primary screen) of 25%. For the same compound, the “selectivity for DYRK1A over MAO-A” value in [4] (ratio of IC50 values) turned out to be 40 fold. The viability at 3 days, 1 µM came out at 93% in series [5], 89% in series [6] and 81% in series [7]. For the same compound, the viability at 3 days, 3 µM in series [5] is 80%; in series [6], 88%; in [7], 88%. The viability at 3 days, 10 µM in series [5] came to 55%; in series [6], 70%; in series [7], 38%. Further, in series [8], the “Residual activity (% of control) CLK1” value is recorded as 11 % of control. Also, in series [9], the “Residual activity (% of control) DYRK1B” value is 7 % of control. Moreover, the “Residual activity (% of control) HIPK2” value in series [10] was 70 % of control.
For the compound `COc1ccc2c3ccnc(C)c3n(C(C)C#N)c2c1` (stereo not shown) [AnnH43], the “Residual activity (% of control) DYRK1A” value in series [1] was 5 % of control. Besides, the “Residual activity (% of control) DYRK2” value in series [2] was 56 % of control. For the same compound, the IC50 came out at 0.202 µM in [3] and 5.39 µM in [4] (setting [14]). Moreover, the figures for the viability at 3 days, 1 µM in series [5], in series [6] and in series [7] were 91%, 88% and 61%, respectively. Also, the viability at 3 days, 3 µM in series [5] was determined as 80%; in series [6], 88%; in series [7], 68%. For the same compound, the results for the viability at 3 days, 10 µM in series [5], in series [6] and in series [7] were 66%, 90% and 45%, respectively. Also, in series [8], the “Residual activity (% of control) CLK1” value is given as 10 % of control. Moreover, the “Residual activity (% of control) DYRK1B” value in [9] was 14 % of control. Moreover, the “Residual activity (% of control) HIPK2” value in series [10] is reported as 84 % of control.
In the case of `Nc1ncnc2c1c(I)cn2[C@@H]1O[C@H](CO)[C@@H](O)[C@H]1O` [IoT, 5-iodotubercidin, reference compound], in [1], the “Residual activity (% of control) DYRK1A” value is recorded as 13 % of control. In addition, the “Residual activity (% of control) DYRK2” value in series [2] is 10 % of control. The “Viability of treated cells relative to untreated control” value was 67% in [11] (1 μM); 16% in series [11] (3 μM); 18% in series [11] (10 μM); 62% in series [12] (PC12, 1 μM); 17% in series [12] (PC12, 3 μM); 5% in [12] (PC12, 10 μM). Moreover, the “Viability of treated cells relative to untreated control” value in series [13] (1 μM) is 13%; in [13] (3 μM) it was 10%; in series [13] (10 μM), 15%. For the same compound, the “Residual activity (% of control) CLK1” value in series [8] is 4 % of control. Moreover, the “Residual activity (% of control) DYRK1B” value in series [9] was 4 % of control. Also, in series [10], the “Residual activity (% of control) HIPK2” value is 20 % of control.
